The record followed here is patent US10099993B2, “Metabotropic glutamate receptor positive allosteric modulators (PAMS) and uses thereof” (Sanford-Burnham Medical Research Institute, priority 2014, dated 2018).

Data set [1] in a line: In vivo PK in rats, p.o. administration. Further details: species or system rat. To be noted: 20 mg/kg; for Plasma: harvested at or near the Tmax; for Kp / Tmax / Cmax: rat, po; for Kp: brain and plasma, read-out: Brain:Plasma ratio; for Tmax / Cmax: plasma.
Data set [2] can be described thus: In vivo PK in rats, i.v. administration. The conditions noted are these: 2 mg/kg; for Cmax / Vd: rat, iv, plasma; for Vd: read-out: Vdss. Further details: species or system rat.
The target in data set [3] is mGlu1 (Rattus norvegicus (Rat), UniProt P23385). Put plainly: mGlu1 calcium assay. Format: cell-based. To be noted: full agonist concentration-response ± 10 μM compound.
The target of data set [4] is mGlu4 (Rattus norvegicus (Rat), UniProt P31423). Put plainly: mGlu4 GIRK thallium flux assay. The format is cell-based. The conditions noted are these: full agonist concentration-response ± 10 μM compound.
The target of data set [5] is mGlu5 (Rattus norvegicus (Rat), UniProt P31424). Put plainly: mGlu5 calcium assay. The format is cell-based. The conditions noted are these: full agonist concentration-response ± 10 μM compound.
Data set [6] concerns the target mGlu6 (Rattus norvegicus (Rat), UniProt P35349). Put plainly: mGlu6 GIRK thallium flux assay. To be noted: full agonist concentration-response ± 10 μM compound. Format: cell-based.
The target of data set [7] is mGlu7 (Rattus norvegicus (Rat), UniProt P35400). Put plainly: mGlu7 GIRK thallium flux assay. The format is cell-based. The conditions noted are these: full L-AP4 concentration-response ± 10 μM compound.
Data set [8] has as its target mGlu8 (Rattus norvegicus (Rat), UniProt P70579). As to the kind of experiment: mGlu8 GIRK thallium flux assay. Format: cell-based. The conditions noted are these: full agonist concentration-response ± 10 μM compound.
Data set [9] concerns the target mGlu2 (Rattus norvegicus (Rat), UniProt P31421). Put plainly: mGlu2 GIRK thallium flux assay.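 As to all read-outs here: Cell-based assay, rate of fluorescence rise right after thallium plus agonist addition read on a kinetic imaging plate reader, normalized to vehicle and maximal agonist control.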 To be noted: for General activity at mGlu2: full agonist concentration-response ± 10 μM compound; for EC50: read-out: mGlu2 PAM EC50, test compound, then EC20 glutamate […] later in the presence of thallium; for Emax: read-out: mGlu2 PAM Max.
Data set [10] deals with mGlu3 (Rattus norvegicus (Rat), UniProt P31422). Put plainly: mGlu3 GIRK thallium flux assay.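 As to all read-outs here: kinetic fluorescence slope read shortly after thallium plus agonist addition, scaled between vehicle and maximal agonist control.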 To be noted: for General activity at mGlu3: full agonist concentration-response ± 10 μM compound; for EC50: read-out: mGlu3 PAM EC50, PAM mode, test compound, then EC20 glutamate […] later in the presence of thallium, mean ± SEM; for Emax: read-out: mGlu3 PAM Max.
Where [11] appears, read: PAM mode, mean ± SEM, at least three experiments.

Chain of mGlu5 (P31424 21-1203): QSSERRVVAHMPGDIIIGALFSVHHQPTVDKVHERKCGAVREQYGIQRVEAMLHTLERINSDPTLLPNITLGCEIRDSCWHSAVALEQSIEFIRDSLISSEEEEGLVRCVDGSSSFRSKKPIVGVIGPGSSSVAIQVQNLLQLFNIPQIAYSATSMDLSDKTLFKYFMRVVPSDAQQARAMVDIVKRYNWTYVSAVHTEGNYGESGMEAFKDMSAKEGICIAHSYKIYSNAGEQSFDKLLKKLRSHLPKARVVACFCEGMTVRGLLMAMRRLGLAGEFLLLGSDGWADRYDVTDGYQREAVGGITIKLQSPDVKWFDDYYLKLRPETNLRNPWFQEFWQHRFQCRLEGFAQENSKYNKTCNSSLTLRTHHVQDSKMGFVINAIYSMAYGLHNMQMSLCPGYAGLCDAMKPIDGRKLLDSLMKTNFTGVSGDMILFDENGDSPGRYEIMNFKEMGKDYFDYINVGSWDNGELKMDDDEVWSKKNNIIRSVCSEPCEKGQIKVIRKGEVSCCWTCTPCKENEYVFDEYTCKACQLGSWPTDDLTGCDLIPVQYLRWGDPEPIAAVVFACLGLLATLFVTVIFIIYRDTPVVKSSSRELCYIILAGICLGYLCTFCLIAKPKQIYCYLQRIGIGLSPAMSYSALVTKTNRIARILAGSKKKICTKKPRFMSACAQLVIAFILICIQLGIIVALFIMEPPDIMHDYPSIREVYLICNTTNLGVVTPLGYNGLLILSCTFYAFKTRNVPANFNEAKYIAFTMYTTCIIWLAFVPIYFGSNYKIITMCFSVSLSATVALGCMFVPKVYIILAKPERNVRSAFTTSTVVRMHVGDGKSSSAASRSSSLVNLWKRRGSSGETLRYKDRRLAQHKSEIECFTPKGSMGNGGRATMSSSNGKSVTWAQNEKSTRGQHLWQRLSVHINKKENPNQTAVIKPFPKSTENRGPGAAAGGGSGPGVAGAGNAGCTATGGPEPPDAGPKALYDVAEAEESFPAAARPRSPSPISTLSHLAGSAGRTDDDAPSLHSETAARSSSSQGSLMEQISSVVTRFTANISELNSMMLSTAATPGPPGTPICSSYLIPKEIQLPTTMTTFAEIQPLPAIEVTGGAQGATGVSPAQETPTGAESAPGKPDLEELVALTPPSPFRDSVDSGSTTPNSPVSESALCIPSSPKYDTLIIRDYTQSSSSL
Chain of mGlu2 (P31421 19-872): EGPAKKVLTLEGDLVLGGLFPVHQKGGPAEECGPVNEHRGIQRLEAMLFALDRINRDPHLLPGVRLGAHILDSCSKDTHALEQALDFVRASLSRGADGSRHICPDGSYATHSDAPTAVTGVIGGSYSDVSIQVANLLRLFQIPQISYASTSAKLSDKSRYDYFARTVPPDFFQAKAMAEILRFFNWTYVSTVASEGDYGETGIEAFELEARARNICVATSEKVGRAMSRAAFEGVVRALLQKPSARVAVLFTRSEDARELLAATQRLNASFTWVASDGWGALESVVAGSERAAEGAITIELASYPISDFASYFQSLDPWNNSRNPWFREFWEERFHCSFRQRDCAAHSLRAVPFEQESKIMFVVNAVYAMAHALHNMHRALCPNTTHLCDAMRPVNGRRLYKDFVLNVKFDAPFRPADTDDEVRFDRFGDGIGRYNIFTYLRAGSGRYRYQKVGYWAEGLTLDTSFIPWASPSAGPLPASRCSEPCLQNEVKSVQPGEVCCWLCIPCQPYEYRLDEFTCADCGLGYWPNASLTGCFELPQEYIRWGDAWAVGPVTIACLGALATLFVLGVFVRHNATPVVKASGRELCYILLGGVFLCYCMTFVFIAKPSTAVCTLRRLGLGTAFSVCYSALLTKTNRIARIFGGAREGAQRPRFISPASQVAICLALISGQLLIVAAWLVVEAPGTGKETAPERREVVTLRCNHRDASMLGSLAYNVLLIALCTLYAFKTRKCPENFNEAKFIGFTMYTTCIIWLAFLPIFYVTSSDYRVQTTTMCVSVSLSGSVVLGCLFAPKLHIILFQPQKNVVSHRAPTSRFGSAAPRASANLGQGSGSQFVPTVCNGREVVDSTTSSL
Chain of mGlu7 (P35400 35-915): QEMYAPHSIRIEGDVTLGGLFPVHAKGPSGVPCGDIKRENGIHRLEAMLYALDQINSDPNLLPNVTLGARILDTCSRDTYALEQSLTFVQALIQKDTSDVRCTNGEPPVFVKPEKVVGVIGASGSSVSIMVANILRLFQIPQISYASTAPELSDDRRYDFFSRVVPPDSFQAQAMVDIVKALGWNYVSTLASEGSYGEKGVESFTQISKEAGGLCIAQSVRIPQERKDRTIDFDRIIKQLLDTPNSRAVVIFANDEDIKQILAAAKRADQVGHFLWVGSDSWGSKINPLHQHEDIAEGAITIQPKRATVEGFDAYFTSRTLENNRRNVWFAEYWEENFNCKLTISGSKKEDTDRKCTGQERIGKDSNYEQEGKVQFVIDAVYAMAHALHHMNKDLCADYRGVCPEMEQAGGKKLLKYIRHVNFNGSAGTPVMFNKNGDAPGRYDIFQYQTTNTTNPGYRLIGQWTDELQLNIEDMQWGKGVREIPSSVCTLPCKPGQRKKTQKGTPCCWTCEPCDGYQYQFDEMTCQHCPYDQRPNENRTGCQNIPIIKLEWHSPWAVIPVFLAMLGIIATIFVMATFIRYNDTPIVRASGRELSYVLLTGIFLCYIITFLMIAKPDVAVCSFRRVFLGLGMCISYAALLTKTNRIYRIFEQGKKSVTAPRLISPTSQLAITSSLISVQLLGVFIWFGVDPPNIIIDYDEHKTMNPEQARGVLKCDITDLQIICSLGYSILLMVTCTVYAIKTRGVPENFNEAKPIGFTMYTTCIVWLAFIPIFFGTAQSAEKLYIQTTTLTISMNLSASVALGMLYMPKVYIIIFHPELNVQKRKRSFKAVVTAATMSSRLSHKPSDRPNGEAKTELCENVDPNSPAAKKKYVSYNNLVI
Chain of mGlu8 (P70579 34-908): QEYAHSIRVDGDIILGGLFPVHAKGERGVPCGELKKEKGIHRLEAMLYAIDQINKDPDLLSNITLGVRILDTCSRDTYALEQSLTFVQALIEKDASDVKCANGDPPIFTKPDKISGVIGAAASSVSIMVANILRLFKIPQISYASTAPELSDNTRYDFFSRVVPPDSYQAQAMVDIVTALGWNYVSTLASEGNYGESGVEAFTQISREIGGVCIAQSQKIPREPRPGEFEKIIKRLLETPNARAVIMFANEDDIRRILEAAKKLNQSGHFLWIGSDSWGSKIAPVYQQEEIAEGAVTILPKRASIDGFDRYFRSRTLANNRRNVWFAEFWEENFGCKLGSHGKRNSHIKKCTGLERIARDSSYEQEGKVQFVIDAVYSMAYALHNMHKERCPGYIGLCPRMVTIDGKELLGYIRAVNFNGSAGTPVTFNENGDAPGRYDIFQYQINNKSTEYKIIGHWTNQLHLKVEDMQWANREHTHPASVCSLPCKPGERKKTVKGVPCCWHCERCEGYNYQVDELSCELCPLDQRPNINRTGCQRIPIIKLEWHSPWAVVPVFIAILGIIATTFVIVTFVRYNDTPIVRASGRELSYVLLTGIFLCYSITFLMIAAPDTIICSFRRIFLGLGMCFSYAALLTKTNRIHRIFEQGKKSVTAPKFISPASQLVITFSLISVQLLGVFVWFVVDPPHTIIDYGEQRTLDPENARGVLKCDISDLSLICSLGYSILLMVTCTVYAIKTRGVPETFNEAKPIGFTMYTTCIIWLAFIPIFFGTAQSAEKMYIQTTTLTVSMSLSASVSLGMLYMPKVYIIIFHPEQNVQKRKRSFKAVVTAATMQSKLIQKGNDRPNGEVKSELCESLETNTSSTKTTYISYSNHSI
Chain of mGlu3 (P31422 23-879): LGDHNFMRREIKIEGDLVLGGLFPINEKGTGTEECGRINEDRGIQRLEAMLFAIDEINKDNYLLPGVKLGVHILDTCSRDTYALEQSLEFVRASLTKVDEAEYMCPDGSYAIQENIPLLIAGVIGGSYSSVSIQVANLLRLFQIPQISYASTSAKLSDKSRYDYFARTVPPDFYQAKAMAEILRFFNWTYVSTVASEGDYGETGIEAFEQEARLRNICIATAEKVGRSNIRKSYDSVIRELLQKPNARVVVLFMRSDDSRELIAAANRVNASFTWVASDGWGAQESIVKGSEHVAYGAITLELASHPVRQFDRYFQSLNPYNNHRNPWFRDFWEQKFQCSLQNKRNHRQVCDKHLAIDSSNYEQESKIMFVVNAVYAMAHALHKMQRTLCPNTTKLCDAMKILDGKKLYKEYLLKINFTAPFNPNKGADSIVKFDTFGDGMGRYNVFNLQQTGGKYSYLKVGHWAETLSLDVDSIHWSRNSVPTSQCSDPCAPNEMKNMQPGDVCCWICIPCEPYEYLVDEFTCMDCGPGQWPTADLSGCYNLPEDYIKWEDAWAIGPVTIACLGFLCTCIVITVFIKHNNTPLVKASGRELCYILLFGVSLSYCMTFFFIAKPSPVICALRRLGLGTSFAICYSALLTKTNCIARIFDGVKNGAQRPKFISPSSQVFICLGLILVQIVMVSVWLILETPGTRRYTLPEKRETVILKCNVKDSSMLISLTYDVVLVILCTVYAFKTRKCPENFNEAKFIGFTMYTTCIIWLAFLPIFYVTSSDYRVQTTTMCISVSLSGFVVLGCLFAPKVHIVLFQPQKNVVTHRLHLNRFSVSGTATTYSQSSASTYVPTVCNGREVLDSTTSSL

Consider `Cc1c(OCCCCOc2ccc(F)c(C(=O)O)c2)ccc(C(=O)CC(C)C)c1O` [Compound 36, 2-Fluoro-5-(4-(3-hydroxy-2-methyl-4-(3-methylbutanoyl)phenoxy)butoxy)benzoic acid], for which, in data set [1], the “AUC(0→t)” value is 720.5 ± 283.4 (μmol/L) min; the “F, oral bioavailability” value is listed as 58.2%; the Plasma was 4.23 ± 1.19 µM; the Kp was 0.06 ± 0.03. Also, in data set [1], the Tmax is 0.5 h and the Cmax was found to be 12500 nM. Further, in [2], the “AUC(0→t)” value is reported as 123.7 ± 7.7 (μmol/L)*min, the highest level (Cmax) was 3.52 ± 0.13 µM and the Vd was determined as 0.89 ± 0.03 L/kg.
Regarding `Cc1c(OCCCCOc2cccc(C(=O)O)c2)ccc(C(=O)CC2CCCC2)c1O` [Compound 25, 3-(4-(4-(2-Cyclopentylacetyl)-3-hydroxy-2-methylphenoxy)butoxy)benzoic acid], in data set [3], the “General activity at mGlu1” value is “inactive^b”. Also, the “General activity at mGlu4” value in [4] is “inactive^b”. The “General activity at mGlu5” value in [5] is “inactive^b”. Further, in data set [6], the “General activity at mGlu6” value is “inactive^b”. Moreover, the “General activity at mGlu7” value in data set [7] is “inactive^b”. Besides, the “General activity at mGlu8” value in data set [8] was “inactive^b”. Besides, the “General activity at mGlu2” value in data set [9] is on record as “Ago-PAM”. Also, the “Emin, minimal response of the concentration-response of agonist” value in data set [9] (mGlu2, 10 μM compound) is listed as “Emin = 45%”; in data set [10] (mGlu3, 10 μM compound) it was “Emin = 6%”. Moreover, the “General activity at mGlu3” value in [10] is listed as “PAM”.
As for `Cc1c(OCCCCOc2ccc(C(=O)O)cc2)ccc(C(=O)CC(C)C)c1O` [Compound 20, 4-(4-(3-Hydroxy-2-methyl-4-(3-methylbutanoyl)phenoxy)butoxy)benzoic acid], the “General activity at mGlu1” value in data set [3] was “inactive^b”. In addition, the “General activity at mGlu4” value in data set [4] is “inactive^b”. Further, in data set [5], the “General activity at mGlu5” value is “inactive^b”. In addition, the “General activity at mGlu6” value in [6] is “inactive^b”. Moreover, the “General activity at mGlu7” value in [7] is “inactive^b”. Moreover, the “General activity at mGlu8” value in data set [8] is “inactive^b”. For the same molecule, in [1], the “AUC(0→t)” value is 544.8 ± 75.4 (μmol/L) min; the “F, oral bioavailability” value was determined as 23.5%; the Plasma amounted to 5.29 ± 1.98 µM; the Kp was 0.2 ± 0.03. Also, in data set [1], the Tmax was 2.25 h and the highest level (Cmax) was 2570 ± 450 nM. Besides, in data set [2], the “AUC(0→t)” value is reported as 231.7 ± 42.12 (μmol/L)*min, the highest concentration (Cmax) worked out at 5 ± 0.6 µM and the Vd was found to be 0.81 ± 0.14 L/kg. The “General activity at mGlu3” value in data set [10] was “PAM”.
For `COc1ccc(C(=O)O)cc1OCCCCOc1ccc(C(=O)CC(C)C)c(O)c1C` [Compound 50, 3-{4-[3-Hydroxy-2-methyl-4-(3-methylbutanoyl)phenoxy]butoxy}-4-methoxybenzoic acid], in data set [1], the “AUC(0→t)” value is given as 466.2 ± 105.2 (μmol/L) min; the “F, oral bioavailability” value came out at 60.4%; the Tmax is 1.6 h; the Cmax is 1050 nM. Moreover, in [2], the “AUC(0→t)” value is 77.2 ± 8.0 (μmol/L)*min, the Cmax was found to be 2.15 ± 0.14 µM and the Vd came out at 2.87 ± 0.6 L/kg.
Take `Cc1c(OCCCCOc2ccc(C(=O)O)c(Cl)c2)ccc(C(=O)CC2CCCC2)c1O` [Compound 33, 2-Chloro-4-(4-(4-(2-cyclopentylacetyl)-3-hydroxy-2-methylphenoxy)butoxy)benzoic acid]: the “General activity at mGlu1” value in data set [3] is “inactive^b”. In [4], the “General activity at mGlu4” value was “inactive^b”. Also, the “General activity at mGlu5” value in data set [5] is “inactive^b”. Also, the “General activity at mGlu6” value in [6] is “inactive^b”. Also, in data set [7], the “General activity at mGlu7” value is “inactive^b”. The “General activity at mGlu8” value in [8] was “inactive^b”. The “General activity at mGlu2” value in [9] was “Ago-PAM”.
Turning to `CCCC(=O)c1ccc(OCCCCOc2ccc(C(=O)O)cc2OC)c(C)c1O` [compound 67], in [3], the “General activity at mGlu1” value is reported as “Antagonist”. For the same molecule, in [4], the “General activity at mGlu4” value was “Antagonist”. In addition, in [5], the “General activity at mGlu5” value is “inactive^b”. For the same molecule, the “General activity at mGlu6” value in data set [6] was “inactive^b”. Further, in [7], the “General activity at mGlu7” value is “inactive^b”. Moreover, the “General activity at mGlu8” value in data set [8] is “inactive^b”.
For the molecule `Cc1cc(-c2cccc(COc3ccc(C(=O)CC(C)(C)C)c(O)c3C)c2)ccc1C(=O)O` [compound 143, 3′-((4-(3,3-Dimethylbutanoyl)-3-hydroxy-2-methylphenoxy)methyl)-3-methyl-[1,1′-biphenyl]-4-carboxylic acid], the EC50 was 571 ± 138 nM in [9] (setting [11]) and 3.06 ± 0.624 µM in data set [10]. In addition, the Emax in data set [9] came to 87 ± 11.7%; in data set [10] it was 78.3 ± 21.1%.
Consider `Cc1c(OCc2cccc(-c3cccc(S(=O)(=O)O)c3)c2)ccc(C(=O)CC(C)(C)C)c1O` [compound 164, 3′-((4-(3,3-Dimethylbutanoyl)-3-hydroxy-2-methylphenoxy)methyl)-[1,1′-biphenyl]-3-sulfonic acid], for which the figures for the Emax in data set [9] and in data set [10] were 101 ± 2.8% and 103 ± 1.9%, respectively.
Regarding `Cc1c(OCc2ccnc(-c3cccc(C(=O)O)c3)c2)ccc(C(=O)CC(C)(C)C)c1O` [compound 149, 3-(4-((4-(3,3-Dimethylbutanoyl)-3-hydroxy-2-methylphenoxy)methyl)pyridin-2-yl)benzoic acid], the EC50 amounted to 230 ± 2 nM in data set [9] (setting [11]) and 0.203 ± 0.001 µM in data set [10]. Besides, the Emax in data set [9] is 108 ± 1.2%; in data set [10] it was 112 ± 3.8%.
For the molecule `Cc1c(OCc2ccc(-c3cccc(C(=O)O)c3)o2)ccc(C(=O)CC(C)(C)C)c1O` [compound 158, 3-(5-((4-(3,3-Dimethylbutanoyl)-3-hydroxy-2-methylphenoxy)methyl)furan-2-yl)benzoic acid], the EC50 in [9] (setting [11]) turned out to be 328 nM; in [10] it was 0.421 ± 0.005 µM. For the same molecule, the Emax in data set [9] is 106 ± 3.8%; in [10], 110 ± 3.9%.
Regarding `Cc1c(OCc2cccc(-c3ccc(Cl)c(C(=O)O)c3)c2)ccc(C(=O)CC(C)C)c1O` [compound 172], in [9] (PAM mode, % Glutamate Max, mean ± SEM, at least three experiments), the “mGlu2 PAM Max” value amounted to 73.7 ± 1.2%. The EC50 in [9] (setting [11]) was 763 ± 40 nM; in [10], above 10 µM.
Turning to `Cc1c(OCCCCOc2cccc(C(=O)O)c2)ccc(C(=O)CC(C)C)c1C` [Compound 22, 3-(4-(2,3-Dimethyl-4-(3-methylbutanoyl)phenoxy)butoxy)benzoic acid], the concentration giving a half-maximal response (EC50) is above 30000 nM in [9] (setting [11]) and above 30 µM in data set [10].
For the molecule `COc1cc(C(=O)NO)ccc1OCCCCOc1ccc(C(=O)CC(C)(C)C)c(O)c1C` [compound 88, 4-(4-(4-(3,3-Dimethylbutanoyl)-3-hydroxy-2-methylphenoxy)butoxy)-N-hydroxy-3-methoxybenzamide], the EC50 in [9] (setting [11]) was 2420 ± 278 nM; in [10], 5.46 ± 0.184 µM. In addition, the Emax in data set [9] was 86.4 ± 2.6%; in data set [10] it was 53.5 ± 10.6%.
Regarding `Cc1c(OCc2cccc(COc3ccc(C(=O)O)cc3)c2)ccc(C(=O)CC2CCCC2)c1O` [compound 126], the EC50 in [9] (setting [11]) is above 10000 nM; in [10] it was above 30 µM.
For `Cc1c(OCc2cncc(-c3cccc(C(=O)O)c3)c2)ccc(C(=O)CC(C)(C)C)c1O` [compound 150, 3-(5-((4-(3,3-Dimethylbutanoyl)-3-hydroxy-2-methylphenoxy)methyl)pyridin-3-yl)benzoic acid], the results for the EC50 in data set [9] (setting [11]) and in data set [10] were 345 ± 2 nM and 0.345 ± 0.009 µM, respectively. The Emax in [9] is 107 ± 2.6%; in data set [10], 107 ± 6.3%.
Consider `COc1ccc(C(=O)NCC(C)C)cc1OCCCCOc1ccc(C(=O)CC(C)(C)C)c(O)c1C` [compound 110, 3-(4-(4-(3,3-Dimethylbutanoyl)-3-hydroxy-2-methylphenoxy)butoxy)-N-isobutyl-4-methoxybenzamide], for which the half-maximal effective concentration (EC50) in data set [9] (setting [11]) was 6400 ± 389 nM; in [10] it was above 30 µM. In addition, the Emax turned out to be 48.4 ± 5.5% in data set [9] and 31.7 ± 8.5% in data set [10].
For the molecule `Cc1c(OCCCCOc2ccc(C(=O)O)cc2)ccc(C(=O)CC(C)C)c1C` [Compound 18, 4-(4-(2,3-Dimethyl-4-(3-methylbutanoyl)phenoxy)butoxy)benzoic acid], the EC50 in data set [9] (setting [11]) is above 30000 nM; in data set [10], above 30 µM.
